Assay results published in patent US20050261332A1, “Sulfonamides and uses thereof” (priority 2004, published 2005).

Target: T1, GHS-R (Homo sapiens, UniProt Q92847)
T1 construct: expressed in transfected cells; host or cells: COS-7 cells
Test: GHS-R competition binding assay (Ki of GHS-R antagonizing compounds)
Description: One exemplary binding assay is as follows: GHS-R expressing COS-7 cells cultured at a density of 1×10^5 cells per well so that binding is assayed in the range of about 5-8 % binding of the radioactive ligand. For example, the cells can express an endogenous nucleic acid encoding GHS-R or an exogenous nucleic acid encoding GHS-R. Cells transfected with an exogenous nucleic acid encoding GHS-R can be used, e.g., two days, after transfection. Competition binding experiments are performed for 3 hours at 4° C. using 25 pM of ^125I-ghrelin in 0.5 ml of 50 mM HEPES buffer, pH 7.4, supplemented with 1 mM CaCl2, 5 mM MgCl2, and 0.1% (w/v) bovine serum albumin, 40 mg/ml bacitracin. Non-specific binding can be determined as the binding in the presence of […] of unlabeled ghrelin. Cells are washed twice in 0.5 ml of ice-cold buffer and then lysed with 0.5-1 ml of lysis buffer (8 M Urea, 2% NP40 in 3 M acetic acid). After washing and lysis, the bound radioactivity is counted. Assays can be run in duplicate or triplicate, e.g., to provide statistical power.
Values of the dissociation and inhibition constants (Kd and Ki) can be estimated from competition binding experiments using the equation: Kd=IC50-L and Ki=IC50/(1+L/Kd), where L is the concentration of radioactive ligand. Bmax values can be estimated from competition binding experiments using the equation Bmax=B0 IC50/[ligand], where B0 is the specifically bound radioligand.

T1 sequence (Q92847 whole entry, species assumed): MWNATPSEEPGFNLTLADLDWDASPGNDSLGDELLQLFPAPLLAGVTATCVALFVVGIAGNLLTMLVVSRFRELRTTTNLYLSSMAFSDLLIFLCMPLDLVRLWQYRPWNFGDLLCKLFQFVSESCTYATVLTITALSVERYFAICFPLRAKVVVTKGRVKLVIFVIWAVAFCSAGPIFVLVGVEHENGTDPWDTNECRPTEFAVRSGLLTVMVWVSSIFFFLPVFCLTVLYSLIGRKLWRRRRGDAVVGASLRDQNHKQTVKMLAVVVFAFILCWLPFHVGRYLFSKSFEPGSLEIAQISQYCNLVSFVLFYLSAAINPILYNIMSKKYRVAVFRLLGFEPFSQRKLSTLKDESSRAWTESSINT

Row | Structure (SMILES) | Ki [nM]
1 | CCN(CC)CCCS(=O)(=O)N[C@H](COCc1ccccc1)C(=O)NCc1ccc(-c2ccccc2-c2nnn(C(C)(C)C)n2)cc1 [Compound 155, (R)-3-Benzyloxy-N-[2′-(2-tert-butyl-2H-tetrazol-5-yl)-biphenyl-4-ylmethyl]-2-(3-diethylamino-propane-1-sulfonylamino)-propionamide] | 100 to 1000
2 | CS(=O)(=O)N1CC2(CCN(C(=O)[C@@H](COCc3ccccc3)NS(=O)(=O)CCCCl)CC2)c2ccccc21 [Compound 146, (R)-N-(3-(benzyloxy)-1-(1-(methylsulfonyl)spiro[indoline-3,4′-piperidine]-1′-yl)-1-oxopropan-2-yl)-3-chloropropane-1-sulfonamide] | < 100
3 | CN1CCN(CCS(=O)(=O)N[C@H](COCc2ccccc2)C(=O)N2CCC3(CC2)CN(S(C)(=O)=O)c2ccccc23)CC1 [Compound 129, (R)-N-(3-(benzyloxy)-1-(1-(methylsulfonyl)spiro[indoline-3,4′-piperidine]-1′-yl)-1-oxopropan-2-yl)-2-(4-methylpiperazin-1-yl)ethanesulfonamide] | > 1000
4 | CCN(CC)CCCS(=O)(=O)N[C@H](CCc1ccccc1)C(=O)c1ccc(-c2ccccc2COC(=O)NC)cc1 [Compound 173, (R)-(4′-(2-(3-(diethylamino)propylsulfonamido)-4-phenylbutanoyl)biphenyl-2-yl)methyl methylcarbamate] | < 100
5 | CCN(CC)CCCS(=O)(=O)N[C@H](COCc1ccccc1)C(=O)N1CCC2(C=Cc3ccccc32)CC1 [Compound 165, (R)-N-(3-(benzyloxy)-1-oxo-1-(spiro[indene-1,4′-piperidine]-1′-yl)propan-2-yl)-3-(diethylamino)propane-1-sulfonamide] | < 100
6 | CN(C)CCCS(=O)(=O)N[C@H](COCc1ccccc1)C(=O)N1CCC2(CC1)CN(S(C)(=O)=O)c1ccccc12 [Compound 149, (R)-N-(3-(benzyloxy)-1-(1-(methylsulfonyl)spiro[indoline-3,4′-piperidine]-1′-yl)-1-oxopropan-2-yl)-3-(dimethylamino)propane-1-sulfonamide] | 100 to 1000
7 | CCN(CC)CCCS(=O)(=O)N(C)[C@H](COCc1ccccc1)C(=O)N1CCC2(CC1)CN(S(C)(=O)=O)c1ccccc12 [Compound 160, (R)-N-(3-(benzyloxy)-1-(1-(methylsulfonyl)spiro[indoline-3,4′-piperidine]-1′-yl)-1-oxopropan-2-yl)-3-(diethylamino)-N-methylpropane-1-sulfonamide] | < 100
8 | CN1CCC(S(=O)(=O)N[C@H](COCc2ccccc2)C(=O)N2CCC3(C=Cc4ccccc43)CC2)CC1 [Compound 147, (R)-N-(3-(benzyloxy)-1-oxo-1-(spiro[indene-1,4′-piperidine]-1′-yl)propan-2-yl)-1-methylpiperidine-4-sulfonamide] | 100 to 1000
9 | CCN(CC)CCCS(=O)(=O)N[C@H](CCc1ccccc1)C(=O)c1ccc(-c2ccccc2N)cc1 [Compound 169] | < 100
10 | NC(=O)c1ccccc1-c1ccc(CNC(=O)[C@@H](COCc2ccccc2)NS(=O)(=O)CCCCl)cc1 [Compound 153, (R)-4′-{[3-Benzyloxy-2-(3-chloro-propane-1-sulfonylamino)-propionylamino]-methyl}-biphenyl-2-carboxylic acid amide] | > 1000
11 | CN(C)CCS(=O)(=O)N[C@H](COCc1ccccc1)C(=O)N1CCC2(CC1)CN(S(C)(=O)=O)c1ccccc12 [Compound 128, (R)-N-(3-(benzyloxy)-1-(1-(methylsulfonyl)spiro[indoline-3,4′-piperidine]-1′-yl)-1-oxopropan-2-yl)-2-(dimethylamino)ethanesulfonamide] | 100 to 1000
12 | CN([C@H](COCc1ccccc1)C(=O)N1CCC2(CC1)CN(S(C)(=O)=O)c1ccccc12)S(=O)(=O)CCCCl [Compound 157, (R)-N-(3-(benzyloxy)-1-(1-(methylsulfonyl)spiro[indoline-3,4′-piperidine]-1′-yl)-1-oxopropan-2-yl)-3-chloro-N-methylpropane-1-sulfonamide] | 100 to 1000
13 | CCN(CC)CCCS(=O)(=O)N[C@H](CCc1ccccc1)C(=O)NCc1ccc(-c2ccccc2CNC(C)=O)cc1 [Compound 170, (R)-N-((2′-(acetamidomethyl)biphenyl-4-yl)methyl)-2-(3-(diethylamino)propylsulfonamido)-4-phenylbutanamide] | 100 to 1000

Further lines, results first:

Row | Ki [nM] | Structure (SMILES)
14 | 100 to 1000 | CCN(CC)CCCS(=O)(=O)N[C@H](CCc1ccccc1)C(=O)c1ccc(-c2ccccc2C(N)=O)cc1 [Compound 174, (R)-4′-(2-(3-(diethylamino)propylsulfonamido)-4-phenylbutanoyl)biphenyl-2-carboxamide]
15 | 100 to 1000 | CCN(CC)CCCS(=O)(=O)N[C@H](COCc1ccccc1)C(=O)c1ccc(-c2ccccc2C(N)=O)cc1 [Compound 177, (R)-4′-[3-Benzyloxy-2-(3-diethylamino-propane-1-sulfonylamino)-propionyl]-biphenyl-2-carboxylic acid amide]
16 | 100 to 1000 | CCN(CC)CCCS(=O)(=O)N[C@H](COCc1ccccc1)C(=O)NCc1ccc(-c2ccccc2CNC(=O)NC)cc1 [Compound 214, (R)-3-Benzyloxy-2-(3-diethylamino-propane-1-sulfonylamino)-N-{2′[(3-methyl-ureido)-methyl]-biphenyl-4-ylmethyl}-propionamide]
17 | < 100 | CCN(CC)CCCS(=O)(=O)N[C@H](CCc1ccccc1)C(=O)c1ccc(-c2ccccc2CNC(=O)NC)cc1 [Compound 196, (R)-3-(diethylamino)-N-(1-(2′-((3-methylureido)methyl)biphenyl-4-yl)-1-oxo-4-phenylbutan-2-yl)propane-1-sulfonamide]
18 | < 100 | CCNC(=O)NCc1ccccc1-c1ccc(C(=O)[C@@H](CCc2ccccc2)NS(=O)(=O)CCN(CC)CC)cc1 [Compound 205, (R)-2-(diethylamino)-N-(1-(2′-((3-ethylureido)methyl)biphenyl-4-yl)-1-oxo-4-phenylbutan-2-yl)ethanesulfonamide]
19 | 100 to 1000 | CCN(CC)CCCS(=O)(=O)N[C@H](CCc1ccccc1)C(=O)c1ccc(-c2ccccc2CNC(=O)OC(C)(C)C)cc1 [Compound 190, (R)-tert-butyl (4′-(2-(3-(diethylamino)propylsulfonamido)-4-phenylbutanoyl)biphenyl-2-yl)methylcarbamate]
20 | 100 to 1000 | CCN(CC)CCCS(=O)(=O)N[C@H](CCc1ccccc1)C(=O)NCc1ccc(-c2ccccc2CC(=O)NC)cc1 [Compound 181, (R)-2-(3-(diethylamino)propylsulfonamido)-N-((2′-(2-(methylamino)-2-oxoethyl)biphenyl-4-yl)methyl)-4-phenylbutanamide]
21 | < 100 | CCN(CC)CCCS(=O)(=O)N[C@H](CCc1ccccc1)C(=O)NCc1ccc(-c2ccccc2CNC(=O)NCCO)cc1 [Compound 188, (R)-2-(3-(diethylamino)propylsulfonamido)-N-((2′-((3-(2-hydroxyethyl)ureido)methyl)biphenyl-4-yl)methyl)-4-phenylbutanamide]
22 | 100 to 1000 | CCN(CC)CCS(=O)(=O)N[C@H](CCc1ccccc1)C(=O)c1ccc(-c2ccccc2CNC(=O)OC(C)(C)C)cc1 [Compound 194, (R)-tert-butyl (4′-(2-(2-(diethylamino)ethylsulfonamido)-4-phenylbutanoyl)biphenyl-2-yl)methylcarbamate]
23 | 100 to 1000 | CCN(CC)CCS(=O)(=O)N[C@H](CCc1ccccc1)C(=O)c1ccc(-c2ccccc2CN)cc1 [Compound 203, (R)-N-(1-(2′-(aminomethyl)biphenyl-4-yl)-1-oxo-4-phenylbutan-2-yl)-2-(diethylamino)ethanesulfonamide]
24 | < 100 | CCN(CC)CCCS(=O)(=O)N[C@H](CCc1ccccc1)C(=O)NCc1ccc(-c2ccccc2COC(=O)NC)cc1 [Compound 208, (R)-Methyl-carbamic acid 4′-{[2-(3-diethylamino-propane-1-sulfonylamino)-4-phenyl-butyrylamino]-methyl}-biphenyl-2-ylmethyl ester]
25 | < 100 | CCN(CC)CCS(=O)(=O)N[C@H](CCc1ccccc1)C(=O)c1ccc(-c2ccccc2CCNC(=O)NC)cc1 [Compound 212, (R)-2-(diethylamino)-N-(1-(2′-(2-(3-methylureido)ethyl)biphenyl-4-yl)-1-oxo-4-phenylbutan-2-yl)ethanesulfonamide]
26 | 100 to 1000 | CCN(CC)CCCS(=O)(=O)N[C@H](CCc1ccccc1)C(=O)NCc1ccc(-c2ccccc2CNC(=O)OC(C)(C)C)cc1 [Compound 182, (R)-(4′-{[2-(3-Diethylamino-propane-1-sulfonylamino)-4-phenyl-butyrylamino]-methyl}-biphenyl-2-ylmethyl)-carbamic acid tert-butyl ester]
27 | 100 to 1000 | C=C(C)C(=O)OCCNC(=O)NCc1ccccc1-c1ccc(C(=O)[C@@H](CCc2ccccc2)NS(=O)(=O)CCN(CC)CC)cc1 [Compound 202, (R)-2-(3-((4′-(2-(2-(diethylamino)ethylsulfonamido)-4-phenylbutanoyl)biphenyl-2-yl)methyl)ureido)ethyl methacrylate]
28 | 100 to 1000 | CCN(CC)CCCS(=O)(=O)N[C@H](CCc1ccccc1)C(=O)c1ccc(-c2ccccc2C(=O)NC)cc1 [Compound 186, (R)-4′-(2-(3-(diethylamino)propylsulfonamido)-4-phenylbutanoyl)-N-methylbiphenyl-2-carboxamide]
